Laboratory results from US10179153B2, “Probiotic and prebiotic compositions” (AQUILON CYL SOCIEDAD LIMITADA, priority 2014, dated 2019).
≈ marks a conversion by molar mass, not a printed value.

Experiments:
AqSynRMH69 strain [1] = assay: In vitro test of minimal inhibitory concentration (MIC) of antibiotics; assay type: cell-based, Lactobacillus reuteri; conditions: for MIC, LSM: LAB susceptibility test medium pH 6.7, unit assumed; for Category: MIC compared with EFSA cut-off
Procedure: The evaluated antibiotics may be the following: Ampicillin, Vancomicin, Gentamicin, Kanamycin, Streptomycin, Eritromycin, Clindamycin, Tetracyclin and Chloranphenicol. An in vitro test of minimal inhibitory concentration (MIC) aimed to evaluate antibiotic resistances was performed for the above strains (AqSynJ59 and […]69). The evaluated antibiotics were the following: Ampicillin, Vancomicin, Gentamicin, Kanamycin, Streptomycin, Clindamycin, Tetracyclin and Chloranphenicol. The microbiological cut-off values that were used for evaluating the antibiotic resistances of the strains of the present invention are the ones defined in the “Guidance on the assessment of bacterial susceptibility to antimicrobials of human and veterinary importance”, EFSA Panel on Additives and Products or Substances used in Animal Feed ([…]), European Food Safety Authority (EFSA), Parma, Italy.

AqSynJ59 strain [2] = conditions: cut-off used for AqSynJ59 (Lactobacillus plantarum); cited from earlier work
AqSynRMH69 strain [3] = conditions: cut-off used for AqSynRMH69 (Lactobacillus reuteri); cited from earlier work
AqSynJ59 strain [4] = assay: In vitro test of minimal inhibitory concentration (MIC) of antibiotics; assay type: cell-based, Lactobacillus plantarum; conditions: for MIC, LSM: LAB susceptibility test medium pH 6.7, unit assumed; for Category: MIC compared with EFSA cut-off
Procedure: An in vitro test of minimal inhibitory concentration (MIC) aimed to evaluate antibiotic resistances was performed for the above strains (AqSynJ59 and […]69). […] The microbiological cut-off values that were used for evaluating the antibiotic resistances of the strains of the present invention are the ones defined in the “Guidance on the assessment of bacterial susceptibility to antimicrobials of human and veterinary importance”, EFSA Panel on Additives and Products or Substances used in Animal Feed ([…]), European Food Safety Authority (EFSA), Parma, Italy.

| Molecule | MIC, LSM (AqSynRMH69 strain [1]) [µg/mL] | Category (AqSynRMH69 strain [1]) | EFSA (2012) values (microbiological cut-off) (AqSynJ59 strain [2]) | EFSA (2012) values (microbiological cut-off) (AqSynRMH69 strain [3]) | MIC, LSM (AqSynJ59 strain [4]) [µg/mL] | Category (AqSynJ59 strain [4]) |
| --- | --- | --- | --- | --- | --- | --- |
| CC1(C)S[C@@H]2[C@H](NC(=O)[C@H](N)c3ccccc3)C(=O)N2[C@H]1C(=O)O [Ampicillin] | 0.25 (≈ 0.715 µM) | S | 2 | 2 | – | – |
| O=C(N[C@H](CO)[C@H](O)c1ccc([N+](=O)[O-])cc1)C(Cl)Cl [Chloramphenicol] | 2 (≈ 6.19 µM) | S | 8 | 4 | 2 (≈ 6.19 µM) | S |
| CCC[C@@H]1C[C@@H](C(=O)N[C@@H]([C@H]2O[C@H](SC)[C@H](O)[C@@H](O)[C@H]2O)[C@H](C)Cl)N(C)C1 [Clindamycin] | 0.125 (≈ 0.294 µM) | S | – | – | 0.125 (≈ 0.294 µM) | S |
| NC[C@H]1O[C@H](O[C@H]2[C@H](O)[C@@H](O[C@H]3O[C@H](CO)[C@@H](O)[C@H](N)[C@H]3O)[C@H](N)C[C@@H]2N)[C@H](O)[C@@H](O)[C@@H]1O [Kanamycin] | 64 (≈ 132 µM) | S | – | – | 64 (≈ 132 µM) | S |
| [H]/N=C(/N)N[C@H]1[C@H](O)[C@@H](O)[C@H](O[C@@H]2O[C@@H](C)[C@](O)(C=O)[C@H]2O[C@@H]2O[C@@H](CO)[C@H](O)[C@@H](O)[C@@H]2NC)[C@@H](N/C(N)=N\[H])[C@@H]1O [Streptomycin] | 32 (≈ 55 µM) | S | – | 64 | 32 (≈ 55 µM) | – |
| CN(C)[C@@H]1C(O)=C(C(N)=O)C(=O)[C@@]2(O)C(O)=C3C(=O)c4c(O)cccc4[C@@](C)(O)[C@H]3C[C@@H]12 [Tetracycline] | 4 (≈ 9 µM) | S | – | – | 4 (≈ 9 µM) | S |
| CN[C@H](CC(C)C)C(=O)N[C@H]1C(=O)N[C@@H](CC(N)=O)C(=O)N[C@H]2C(=O)N[C@H]3C(=O)N[C@H](C(=O)N[C@H](C(=O)O)c4cc(O)cc(O)c4-c4cc3ccc4O)[C@H](O)c3ccc(c(Cl)c3)Oc3cc2cc(c3O[C@@H]2O[C@H](CO)[C@@H](O)[C@H](O)[C@H]2O[C@H]2C[C@](C)(N)[C@H](O)[C@H](C)O2)Oc2ccc(cc2Cl)[C@H]1O [Vancomycin] | 512 (≈ 353 µM) | R | – | – | 512 (≈ 353 µM) | – |
| Gentamicin | 2 | S | 16 | 8 | 1 | S |
